# Tested on: MV-4-11 cells
# Test: Gene expression microarray analysis (Affymetrix PrimeView) and GSEA
# Assay type: cell-based, human
# Set-up: RFU PODN (11730768_x_at) / Fold change /veh PODN (11730768_x_at) / RFU LINC00158 (11744669_a_at) / Fold change /veh LINC00158 (11744669_a_at) / RFU DUSP10 (11751237_a_at) / Fold change /veh DUSP10 (11751237_a_at) / RFU ID3 (11757404_x_at) / Fold change /veh ID3 (11757404_x_at) / RFU PLEKHG5 (11737974_s_at) / Fold change /veh PLEKHG5 (11737974_s_at) / RFU LRRC4B (11730491_at) / Fold change /veh LRRC4B (11730491_at) / RFU GIMAP4 (11747438_a_at) / Fold change /veh GIMAP4 (11747438_a_at) / RFU KRT8 (11758183_x_at) / Fold change /veh KRT8 (11758183_x_at) / RFU CNN1 (11734310_a_at) / Fold change /veh CNN1 (11734310_a_at) / RFU VPS37D (11726825_at) / Fold change /veh VPS37D (11726825_at) / RFU C10orf10 (11716522_x_at) / Fold change /veh C10orf10 (11716522_x_at) / RFU KIR2DL2 /// KIR2DL4 /// KIR2DL5A /// KIR2DL5B /// KIR2DS1 /// KIR2DS2 /// KIR2DS3 /// KIR2DS4 /// KIR3DL3 /// KIR3DL3 /// KIR3DS1 (11738374_at) / Fold change /veh KIR2DL2 /// KIR2DL4 /// KIR2DL5A /// KIR2DL5B /// KIR2DS1 /// KIR2DS2 /// KIR2DS3 /// KIR2DS4 /// KIR3DL3 /// KIR3DL3 /// KIR3DS1 (11738374_at) / RFU C1QL1 (11718748_at) / Fold change /veh C1QL1 (11718748_at) / RFU TMPRSS4 (11747572_a_at) / Fold change /veh TMPRSS4 (11747572_a_at) / RFU HAMP (11756126_x_at) / Fold change /veh HAMP (11756126_x_at) / RFU RNFT2 (11725882_a_at) / Fold change /veh RNFT2 (11725882_a_at) / RFU NR4A2 (11747474_a_at) / Fold change /veh NR4A2 (11747474_a_at) / RFU ABCC12 (11746883_a_at) / Fold change /veh ABCC12 (11746883_a_at) / RFU TMEM136 (11760407_x_at) / Fold change /veh TMEM136 (11760407_x_at) / RFU CLDN22 /// WWC2 (11732394_at) / Fold change /veh CLDN22 /// WWC2 (11732394_at) / RFU HLA-DPB1 (11760878_x_at) / Fold change /veh HLA-DPB1 (11760878_x_at) / RFU SPINT1 (11716480_a_at) / Fold change /veh SPINT1 (11716480_a_at) / RFU GAP43 (11754022_s_at) / Fold change /veh GAP43 (11754022_s_at) / RFU A4GNT (11735810_at) / Fold change /veh A4GNT (11735810_at) / RFU PRB3 (11715151_x_at) / Fold change /veh PRB3 (11715151_x_at) / RFU TUBB4B (11761932_at) / Fold change /veh TUBB4B (11761932_at) / RFU CAPN14 (11732068_a_at) / Fold change /veh CAPN14 (11732068_a_at) / RFU TMCC2 (11721928_a_at) / Fold change /veh TMCC2 (11721928_a_at) / RFU IRGQ (11745062_a_at) / Fold change /veh IRGQ (11745062_a_at) / RFU FAM174B (11720279_a_at) / Fold change /veh FAM174B (11720279_a_at) / RFU TMPRSS4 (11748680_a_at) / Fold change /veh TMPRSS4 (11748680_a_at) / RFU FAM212B (11763350_a_at) / Fold change /veh FAM212B (11763350_a_at) / RFU PLEKHG5 (11743358_a_at) / Fold change /veh PLEKHG5 (11743358_a_at) / RFU ZSCAN30 (11745921_a_at) / Fold change /veh ZSCAN30 (11745921_a_at) / RFU CMKLR1 (11741424_a_at) / Fold change /veh CMKLR1 (11741424_a_at) / RFU LOC101060620 /// MAPK8IP1 (11723275_at) / Fold change /veh LOC101060620 /// MAPK8IP1 (11723275_at) / RFU SPTSSB (11747773_x_at) / Fold change /veh SPTSSB (11747773_x_at) / RFU PRSS12 (11739890_at) / Fold change /veh PRSS12 (11739890_at) / RFU BIN1 (11741810_x_at) / Fold change /veh BIN1 (11741810_x_at) / RFU WNT11 (11732464_a_at) / Fold change /veh WNT11 (11732464_a_at) / RFU C10orf10 (11716521_a_at) / Fold change /veh C10orf10 (11716521_a_at) / RFU C5orf56 (11738089_at) / Fold change /veh C5orf56 (11738089_at) / RFU CYB561 (11721691_x_at) / Fold change /veh CYB561 (11721691_x_at) / RFU ANKRD19P (11752326_a_at) / Fold change /veh ANKRD19P (11752326_a_at) / RFU OR2T12 /// OR2T33 /// OR2T8 (11738714_s_at) / Fold change /veh OR2T12 /// OR2T33 /// OR2T8 (11738714_s_at) / RFU VCAN (11748164_a_at) / Fold change /veh VCAN (11748164_a_at) / RFU JSRP1 (11732532_at) / Fold change /veh JSRP1 (11732532_at) / RFU KRTAP10-11 (11738290_x_at) / Fold change /veh KRTAP10-11 (11738290_x_at) / RFU MYO3A (11730013_a_at) / Fold change /veh MYO3A (11730013_a_at) / RFU EBF3 (11725865_a_at) / Fold change /veh EBF3 (11725865_a_at) / RFU CAMK2N1 (11719241_x_at) / Fold change /veh CAMK2N1 (11719241_x_at) / RFU C5orf56 (11738088_a_at) / Fold change /veh C5orf56 (11738088_a_at) / RFU OLFML3 (11715873_a_at) / Fold change /veh OLFML3 (11715873_a_at) / RFU LOC100653217 /// NTM (11731650_a_at) / Fold change /veh LOC100653217 /// NTM (11731650_a_at) / RFU MAPK11 (11762145_a_at) / Fold change /veh MAPK11 (11762145_a_at) / RFU FIZ1 (11724087_x_at) / Fold change /veh FIZ1 (11724087_x_at) / RFU OASL (11726364_x_at) / Fold change /veh OASL (11726364_x_at) / RFU SOX15 (11748057_x_at) / Fold change /veh SOX15 (11748057_x_at) / RFU CD79A (11719716_a_at) / Fold change /veh CD79A (11719716_a_at) / RFU HIST1H1D (11736915_at) / Fold change /veh HIST1H1D (11736915_at) / RFU CASKIN2 (11723855_a_at) / Fold change /veh CASKIN2 (11723855_a_at) / RFU LOC730098 (11760151_x_at) / Fold change /veh LOC730098 (11760151_x_at) / RFU OR4N2 (11742367_at) / Fold change /veh OR4N2 (11742367_at) / RFU PRRT2 (11749266_a_at) / Fold change /veh PRRT2 (11749266_a_at) / RFU SNX32 (11753110_a_at) / Fold change /veh SNX32 (11753110_a_at) / RFU CDHR5 (11726645_a_at) / Fold change /veh CDHR5 (11726645_a_at) / RFU RCAN1 (11760418_a_at) / Fold change /veh RCAN1 (11760418_a_at) / RFU FAM167A (11723789_a_at) / Fold change /veh FAM167A (11723789_a_at) / RFU FAM26E (11764081_at) / Fold change /veh FAM26E (11764081_at) / RFU ISYNA1 (11749810_s_at) / Fold change /veh ISYNA1 (11749810_s_at) / RFU ACY1 (11761880_at) / Fold change /veh ACY1 (11761880_at) / RFU 11764098_at / Fold change /veh 11764098_at / RFU SAMD14 (11745864_x_at) / Fold change /veh SAMD14 (11745864_x_at) / RFU NPB (11741838_a_at) / Fold change /veh NPB (11741838_a_at) / RFU TMPRSS6 (11731388_a_at) / Fold change /veh TMPRSS6 (11731388_a_at) / RFU KRTAP10-2 (11738614_at) / Fold change /veh KRTAP10-2 (11738614_at) / RFU ARHGAP8 /// PRR5-ARHGAP8 (11727945_x_at) / Fold change /veh ARHGAP8 /// PRR5-ARHGAP8 (11727945_x_at) / RFU KRTAP5-7 /// NADSYN1 (11734609_at) / Fold change /veh KRTAP5-7 /// NADSYN1 (11734609_at) / RFU RASL12 (11751679_a_at) / Fold change /veh RASL12 (11751679_a_at) / RFU CDKN2B (11736163_a_at) / Fold change /veh CDKN2B (11736163_a_at) / RFU PRF1 (11729649_at) / Fold change /veh PRF1 (11729649_at) / RFU, ZNF638 /// ZNF638-IT1 / Fold change vs veh, ZNF638 /// ZNF638-IT1 / RFU, PANK3 / Fold change vs veh, PANK3 / RFU, SH3YL1 / Fold change vs veh, SH3YL1 / RFU, ZEB2 / Fold change vs veh, ZEB2 / RFU, NRIP1 / Fold change vs veh, NRIP1 / RFU, PTTG1IP / Fold change vs veh, PTTG1IP / RFU, CAPN2 / Fold change vs veh, CAPN2 / RFU, MED14 / Fold change vs veh, MED14 / RFU, SNORA58 / Fold change vs veh, SNORA58 / RFU, C1orf63 / Fold change vs veh, C1orf63 / RFU, LRRFIP1 / Fold change vs veh, LRRFIP1 / RFU, NDUFAF7 / Fold change vs veh, NDUFAF7 / RFU, SLC12A2 / Fold change vs veh, SLC12A2 / RFU, IBTK / Fold change vs veh, IBTK / RFU, ESF1 / Fold change vs veh, ESF1 / Fold change vs veh, TMEM50B / RFU, TAOK1 / Fold change vs veh, TAOK1 / RFU, ACBD3 / Fold change vs veh, ACBD3 / RFU, TMA16 / Fold change vs veh, TMA16 / RFU, RWDD3 / Fold change vs veh, RWDD3 / RFU, BCAT1 / Fold change vs veh, BCAT1 / RFU, EDEM3 / Fold change vs veh, EDEM3 / RFU, TMEM33 / Fold change vs veh, TMEM33 / RFU, WDR75 / Fold change vs veh, WDR75 / RFU, AHCTF1 / Fold change vs veh, AHCTF1 / RFU, TFRC / Fold change vs veh, TFRC / RFU, ZDHHC17 / Fold change vs veh, ZDHHC17 / RFU, NOM1 / Fold change vs veh, NOM1 / RFU, ARL8B / Fold change vs veh, ARL8B / RFU, ZBTB11 / Fold change vs veh, ZBTB11 / RFU, TAMM41 / Fold change vs veh, TAMM41 / RFU, KIAA1704 /// LOC100996395 / Fold change vs veh, KIAA1704 /// LOC100996395 / RFU, ING1 / Fold change vs veh, ING1 / RFU, TRMT61B / Fold change vs veh, TRMT61B / RFU, FUBP3 / Fold change vs veh, FUBP3 / RFU, TP53 / Fold change vs veh, TP53 / RFU, TNKS2 / Fold change vs veh, TNKS2 / RFU, ZFP14 / Fold change vs veh, ZFP14 / RFU, ACTR2 / Fold change vs veh, ACTR2 / RFU, PPP3R1 / Fold change vs veh, PPP3R1 / RFU, PIK3R1 / Fold change vs veh, PIK3R1 / RFU, HNRNPA1 / Fold change vs veh, HNRNPA1 / RFU, RNF170 / Fold change vs veh, RNF170 / RFU, ZNF28 / Fold change vs veh, ZNF28 / RFU, RNGTT / Fold change vs veh, RNGTT / RFU, OGT / Fold change vs veh, OGT / RFU, BRD1 / Fold change vs veh, BRD1 / RFU, MARS / Fold change vs veh, MARS / RFU, ZNF655 / Fold change vs veh, ZNF655 / RFU, FAHD1 / Fold change vs veh, FAHD1 / RFU, BDP1 / Fold change vs veh, BDP1 / RFU, LRRCC1 / Fold change vs veh, LRRCC1 / RFU, ARID1A / Fold change vs veh, ARID1A / RFU, ZNF146 / Fold change vs veh, ZNF146 / RFU, ZNF330 / Fold change vs veh, ZNF330 / RFU, GPN3 / Fold change vs veh, GPN3 / RFU, C9orf123 / Fold change vs veh, C9orf123 / RFU, N4BP2L2 / Fold change vs veh, N4BP2L2 / RFU, ARFIP1 / Fold change vs veh, ARFIP1 / RFU, FAM179B / Fold change vs veh, FAM179B / RFU, BCL10 / Fold change vs veh, BCL10 / RFU, UHRF1BP1L / Fold change vs veh, UHRF1BP1L / RFU, BET1 / Fold change vs veh, BET1 / RFU, CNOT2 / Fold change vs veh, CNOT2 / RFU, ZNF268 / Fold change vs veh, ZNF268 / Fold change vs veh, ZNF507 / RFU, DGCR2 / Fold change vs veh, DGCR2 / RFU, WDSUB1 / Fold change vs veh, WDSUB1 / Fold change vs veh, HSP90B1 /// MIR3652 / RFU, ADSS / Fold change vs veh, ADSS / RFU, GK / Fold change vs veh, GK / RFU, ZNF148 / Fold change vs veh, ZNF148 / RFU, TAF9 / Fold change vs veh, TAF9 / RFU, SLC1A5 / Fold change vs veh, SLC1A5 / RFU, SLMO2 / Fold change vs veh, SLMO2 / RFU, ABCC4 / Fold change vs veh, ABCC4 / RFU, LOC101060439 /// RAP1B / Fold change vs veh, LOC101060439 /// RAP1B / RFU, RFX7 / Fold change vs veh, RFX7 / RFU, GTPBP10 / Fold change vs veh, GTPBP10 / RFU, CNEP1R1 / Fold change vs veh, CNEP1R1 / RFU, BIVM-ERCC5 /// ERCC5 / Fold change vs veh, BIVM-ERCC5 /// ERCC5 / RFU, ILF3 / Fold change vs veh, ILF3 / RFU 11762660_at / Fold change /veh 11762660_at / RFU VCAN (11757783_s_at) / Fold change /veh VCAN (11757783_s_at) / RFU DDX43 (11728927_at) / Fold change /veh DDX43 (11728927_at) / RFU KRT8 (11758188_x_at) / Fold change /veh KRT8 (11758188_x_at) / RFU NKD1 (11759106_at) / Fold change /veh NKD1 (11759106_at) / RFU SRD5A1 (11742802_a_at) / Fold change /veh SRD5A1 (11742802_a_at) / RFU TPSAB1 /// TPSB2 (11721975_s_at) / Fold change /veh TPSAB1 /// TPSB2 (11721975_s_at) / RFU GSTM3 (11746129_a_at) / Fold change /veh GSTM3 (11746129_a_at) / RFU IL23R (11737362_x_at) / Fold change /veh IL23R (11737362_x_at) / RFU TMEM51 (11727254_a_at) / Fold change /veh TMEM51 (11727254_a_at) / RFU PIWIL2 (11732686_x_at) / Fold change /veh PIWIL2 (11732686_x_at) / RFU ORM1 (11744905_x_at) / Fold change /veh ORM1 (11744905_x_at) / RFU CCDC152 (11743942_at) / Fold change /veh CCDC152 (11743942_at) / RFU ECM1 (11717891_a_at) / Fold change /veh ECM1 (11717891_a_at) / RFU IL23R (11748794_a_at) / Fold change /veh IL23R (11748794_a_at) / RFU TNFAIP8L3 (11732012_x_at) / Fold change /veh TNFAIP8L3 (11732012_x_at) / RFU MBOAT4 (11741988_at) / Fold change /veh MBOAT4 (11741988_at) / RFU 11764193_at / Fold change /veh 11764193_at / RFU TMEM53 (11763286_at) / Fold change /veh TMEM53 (11763286_at) / RFU MAGEB2 (11727129_at) / Fold change /veh MAGEB2 (11727129_at) / RFU TMEM200A (11744735_a_at) / Fold change /veh TMEM200A (11744735_a_at) / RFU CCDC152 (11751479_a_at) / Fold change /veh CCDC152 (11751479_a_at) / RFU FAM211A (11726209_a_at) / Fold change /veh FAM211A (11726209_a_at) / RFU RGS16 (11746705_a_at) / Fold change /veh RGS16 (11746705_a_at) / RFU VCAN (11755009_s_at) / Fold change /veh VCAN (11755009_s_at) / RFU RHOB (11743442_s_at) / Fold change /veh RHOB (11743442_s_at) / RFU RGS16 (11720943_a_at) / Fold change /veh RGS16 (11720943_a_at) / RFU RGS16 (11720944_at) / Fold change /veh RGS16 (11720944_at) / RFU, VPS4B / Fold change vs veh, VPS4B / RFU, CREB1 / Fold change vs veh, CREB1 / RFU, DNAJC13 / Fold change vs veh, DNAJC13 / RFU, GNAQ / Fold change vs veh, GNAQ / RFU, CDK5R1 / Fold change vs veh, CDK5R1 / RFU, ZRANB3 / Fold change vs veh, ZRANB3 / RFU, CUL4A / Fold change vs veh, CUL4A / RFU, CCNY / Fold change vs veh, CCNY / RFU, UFL1 / Fold change vs veh, UFL1 / RFU, COG3 / Fold change vs veh, COG3 / RFU, DIAPH2 / Fold change vs veh, DIAPH2 / RFU, SKA2 / Fold change vs veh, SKA2 / RFU, AFF3 / Fold change vs veh, AFF3 / RFU, LMF1 / Fold change vs veh, LMF1 / RFU, IPO11 / Fold change vs veh, IPO11 / RFU, DFFB / Fold change vs veh, DFFB / RFU, FOXP1 / Fold change vs veh, FOXP1 / RFU, CARD8 / Fold change vs veh, CARD8 / RFU, STRN3 / Fold change vs veh, STRN3 / RFU, ADK / Fold change vs veh, ADK / RFU, RASSF2 / Fold change vs veh, RASSF2 / RFU, WIPF1 / Fold change vs veh, WIPF1 / RFU, LARP1B / Fold change vs veh, LARP1B / RFU, RASA1 / Fold change vs veh, RASA1 / RFU, RB1 / Fold change vs veh, RB1 / RFU, PPFIA1 / Fold change vs veh, PPFIA1 / RFU, MAT2A / Fold change vs veh, MAT2A / RFU, CCT5 / Fold change vs veh, CCT5 / RFU, WDR92 / Fold change vs veh, WDR92 / RFU, CUX1 / Fold change vs veh, CUX1 / RFU, TTC7A / Fold change vs veh, TTC7A / RFU, TMEM135 / Fold change vs veh, TMEM135 / RFU, DEPTOR / Fold change vs veh, DEPTOR / RFU, CPM / Fold change vs veh, CPM / RFU, DNAJB6 / Fold change vs veh, DNAJB6 / RFU, CACNA2D3 / Fold change vs veh, CACNA2D3 / RFU, DTX4 / Fold change vs veh, DTX4 / RFU, TFCP2 / Fold change vs veh, TFCP2 / RFU, GMCL1 /// GMCL1P1 / Fold change vs veh, GMCL1 /// GMCL1P1 / RFU, AEBP2 / Fold change vs veh, AEBP2 / RFU, SNHG1 /// SNORD22 /// SNORD25 /// SNORD26 /// SNORD27 /// SNORD28 /// SNORD29 /// SNORD31 / Fold change vs veh, SNHG1 /// SNORD22 /// SNORD25 /// SNORD26 /// SNORD27 /// SNORD28 /// SNORD29 /// SNORD31 / Fold change (Aza/veh), C12orf56 (ProbeSet 11735607_a_at) / Fold change (ACY-1035/veh), C12orf56 (ProbeSet 11735607_a_at) / Fold change (Aza/veh), FGFR1OP (ProbeSet 11751329_s_at) / Fold change (ACY-1035/veh), FGFR1OP (ProbeSet 11751329_s_at) / Fold change (Aza/veh), VPS36 (ProbeSet 11739960_a_at) / Fold change (ACY-1035/veh), VPS36 (ProbeSet 11739960_a_at) / RFU SYPL1 (11715823_x_at) / Fold change /veh SYPL1 (11715823_x_at) / RFU IGFBP7 (11715501_s_at) / Fold change /veh IGFBP7 (11715501_s_at) / RFU REEP3 (11722064_at) / Fold change /veh REEP3 (11722064_at) / RFU IGLL1 (11728026_x_at) / Fold change /veh IGLL1 (11728026_x_at): dose or concentration left out as unconfirmed
# Conditions: ProbeSet 11747889_x_at; LIST B
structure (smiles),measurement,value
Nc1ncn([C@@H]2O[C@H](CO)[C@@H](O)[C@H]2O)c(=O)n1 [azacitidine],"Fold change vs veh, SH3YL1",0.87
